# Measured values from US8580814B2, “Methods of using (+)-1,4-dihydro-7-[(3S,4S)-3-methoxy-4-(methylamino)-1-pyrrolidinyl]-4- oxo-1-(2-thiazolyl)-1,8-naphthyridine-3-carboxylic acid for treatment of cancer” (priority 2006, dated 2013).
# Experiments:
# Assay type in all cases: cell-based
# [1] = test system: ATRFLOX (HCT-116 cells with 6 fold lower ATR levels); assay: Timing of apoptosis (caspase-3 activation); settings: Cell Line ATRFLOX; dosed at 30 fold above the EC50 for cytotoxicity
# [2] = test system: Jurkat (T cell leukemia); assay: MTT cell viability assay, leukemia cells; settings: Homo sapiens, MTT after 72 hours
# Description: (§1) The following cell lines were used in this assay: HL-60 (promyelocytic leukemia); Jurkat (T cell leukemia); CCRF-CEM (lymphoblastic leukemia); CEM/C2 (camptothecan resistant derivative of CCRF-CEM). Cells were seeded in 96 wells plates at 3000 cells per well and incubated for 16 hours. […] Titrations were diluted 1:100 in media to achieve final compound concentrations. The 96 well plates were aspirated and compound dilutions in media were added ([…]). MTT analysis was carried out after 72 hours of incubation at 37° C. Briefly, […] of MTT solution was added to each well. Cells were incubated at 37° C. for 1-2 hours. […] Plates were read on a spectromax machine with an absorbance measurement at […]. IC50's were calculated (data provided in Table 13) using regression analysis within GraphPad Prism.
# [3] = test system: CEM/C2 (camptothecan resistant derivative of CCRF-CEM); assay: MTT cell viability assay, leukemia cells; settings: Homo sapiens; CEM/C2, MTT after 72 hours
# Description: as §1
# [4] = test system: CCRF-CEM (lymphoblastic leukemia); assay: MTT cell viability assay, leukemia cells; settings: Homo sapiens, MTT after 72 hours
# Description: as §1
smiles,measurement,setting,value
"CN[C@H]1CN(c2ccc3c(=O)c(C(=O)O)cn(-c4nccs4)c3n2)C[C@@H]1OC [SNS-595, (+)-1,4-dihydro-7-[(3S,4S)-3-methoxy-4-(methylamino)-1-pyrrolidinyl]-4-oxo-1-(2-thiazolyl)-1,8-naphthyridine-3-carboxylic acid]",Timing of apoptosis: fraction of cell cycle to achieve 50% maximal caspase-3 activation,[1],0.35
same,IC50,[2],0.023 µg/mL
same,IC50,[3],0.01 µg/mL
same,IC50,[4],0.018 µg/mL
